Patent US20070117861A1, “Treatment or prevention of cardiovascular and respiratory disorders with novel substituted cyclic-amp specific phosphodiesterase inhibitors” (University of South Carolina, priority 2003, published 2007)
pIC50: −log10 of the molar value.

Assays:
[1] = tested on: guinea pig atrial myocytes; assay: action potentials, nystatin-perforated whole-cell patch-clamp, atrial myocytes; format: cell-based
Description: (§1) The effects of a novel synthesized cAMP specific phosphodiesterase inhibitor MS23 on action potential parameters were examined and compared with those of milrinone and rolipram in isolated guinea-pig myocytes. Action potentials (AP) were recorded under nystatin-perforated whole-cell patch-clamp mode at a temperature of 35±0.5° C. […] In comparison, rolipram (30 μM) shortened APD90 from 318.3±8.9 to 274.6±9.8 msec (P<0.05, n=3) in ventricular cells. […] In contrast, milrinone (10 μM) elongated ventricular APD90 from 287.9±10.3 msec to 327.8±17.4 msec (P<0.05, n=4) and produced a significant delay of phase 1 and plateau phase, but acceleration of phase 3 repolarization (APD90 shortened from 153.9±12.1 to 135.5±12.3 msec, P<0.05, n=4) in atrial cells.
(§2) Single myocytes were isolated by enzymatic digestion of guinea pig hearts. The animal was anesthetized by I.P. injection of pentobarbital sodium (50 mg/kg) and the heart was excised and retrogradely perfused with oxygenated Tyrode solution containing (in […]): 140 NaCl, 5.4 KCl, 1.5 MgCl2, 1.8 CaCl2, 0.33 NaH2PO4, 5.5 Glucose, 19 Hepes (pH 7.4 with NaOH at 36.5° C.). The enzymatic digestion was carried out with Ca^2+-free Tyrode solution by adding 0.4 mg/ml of collagenase type II (306 units/mg) and 1.6 mg/ml Bovine Serum Albumin V.
(§3) Transmembrane potentials were recorded under nystatin-perforted whole-cell current-clamp mode at 36.5° C. when the cells were bathed in Tyrode solution. The finished pipette had resistance of 4-7 MΩ when filled with a perforate solution containing (in mM): 140 KCl, 2 MCl2, 0.5 CaCl2, 10 Glucose, 10 Hepes (pH 7.2 with KOH), and 8.64 nM nystatin. The correction of junction potential was carried out off-line. The data acquisition was performed with an Axonpatch-200B amplifier/Digidata 1322A/Clampex 8.2 system (Axon Instrument, Inc., USA). Action potential was evoked by consecutive 10 msec rectangular current pulses at an interval of 2 seconds. APD was measured at 90% of repolarization (APD^90). The cell was held at a −40 mV membrane potential to inactivate the sodium channels. L-type calcium current was elicited by a step pulse from −40 mV to 0 mV with a duration of 300 msec.

[2] = tested on: guinea pig ventricular myocytes; assay: action potentials, nystatin-perforated whole-cell patch-clamp, ventricular myocytes; format: cell-based
Description: as §1, §2, §3

[3] = tested on: high K+ contracted porcine kidney main artery; assay: tension assay, high K+ contracted porcine kidney vessel rings; conditions: tension assay trace, FIG. 5
Description: The trachea, main bronchi and vessel rings (2-3 mm in width) of Sprague-Dawley rats, Harley Guinea Pigs and porchine were used to carry out the tension assay. The tissue rings were bathed in 3.5 ml or 30 ml tissue chamber and aired with 95% O2/5% CO2 at 37° C. The tension was measured using a tension transducer linked to a PowerLab system (ADInstruments, USA). The basal tension was set to 0.7-1.0 g step by step with a 0.1-0.2 g increment. After the base tension reached steady-state in control K-H solution, the rings were contracted for 5-10 minutes by a 70 mM high K^+ K-H solution and relaxed by switching back to normal K-H solution. The alternation between 70 mM K^+ K-H and normal K-H was repeated two more times to equilibrate the tissue before the experiment.

[4] = onset of therapeutic effect after administration; format: in vivo
solubility = format: physicochemical
[5] = blood pressure in anesthetized dogs after intravenous bolus injection; format: in vivo; conditions: for Left Ventricular End Diastolic Pressure: control 8.7; for Blood Pressure Min: control 46.6; for Blood Pressure Mean: control 67.2; for Left Ventricular Systolic Pressure: control 78.5; for Blood Pressure Max: control 99.8; for Heart Rate: control 119.8, in bpm (unit assumed)
Description: This example illustrates the effect that MS23 has on blood pressure reduction through an in vivo experiment in dogs. An intravenous bolus injection of MS23 was administered to anesthetized dogs at a dose of 0.25 mg/kg.bw. […] Higher doses of MS23 produced a greater decrease in blood pressure without affecting heart rate and left ventricular end diastolic pressure.

[6] = blood pressure and heart rate in anesthetized rats after oral gavage; format: in vivo; conditions: anesthetized female rat; for Mean Blood Pressure: saline control 186; for Heart Rate: saline control 364
Description: This example illustrates the effect that MS23 has on blood pressure reduction through an in vivo experiment. Specifically, this example illustrates the effect of an intravenous bolus injection of MS23 on blood pressure. Female Sprague-Dawley rats weighing 200-225 g were anesthetized with pentobarbital (30 mg/kg body weight (bw), i.p.). The animals were positioned supinely on a heat plate that was controlled by an automatic temperature controller system (TC-324B, Warner Instrument Corp.) to maintain its body temperature constant (36° ±0.5° C.) during the experiment. The trachea, right carotid artery, and left femoral vein were exposed. The trachea was cannulated and the animal was breathed with air through a respirator at a rate of 65-70/min and an inspiration pressure of approximately 10 cm H2O. PE catheters were implanted into the carotid artery and femoral vein, respectively. The animal was heparinized by i.v. injection of approximately 300 units of heparin dissolved in 0.3 ml of 0.9% saline. Arterial pressure was recorded from the carotid artery catheter connected to a physiological pressure transducer (SP 844, Capto Company, Norway) that was coupled to a bridge amplifier (PowerLab, ADInstruments). The data was digitized through a 16 SP interface and acquire on-line with Chart 4.0 software (PowerLab, ADInstruments) and stored to a personal computer.
MS23 was administered to two female rats via oral gavage at a dose of 26 and 80 mg/kg.bw, respectively. The agent was dissolved in 0.9% saline in a volume of 0.5 ml. The same volume of saline alone was administered to two control animals. After 15 minutes, the animal was anesthetized with pentobarbital (30 mg/kg.bw, i.p.) and same surgery was performed except that the femoral vein was not exposed and there was no i.v. administration of the test agent. The carotid blood pressure and heart rate were monitored and recorded for 60 minutes using the same method described above. The initial recording was made within 45 to 65 minutes after performing oral gavage. The results are reported in the following Table 1 (the MBP and HR were measured within 30 minutes after the surgery).

PDE-4 = tested on: T1, PDE-4; conditions: reported in Hatzelmann et al. 2001; read-out: IC50 for roflumilast activity on PDE-4; cited from earlier work
T1 construct: other: reported in Hatzelmann et al. 2001

PDE5 = PDE5 (Homo sapiens, UniProt O76074); conditions: ratio of cited IC50 values
Description: PDE inhibition is then determined by the presence or absence of substrate degradation products. […] The relative ability of an inhibitory compound to slow or prevent the degradation of tritiated cyclic nucleotides is one test that is indicative of how well the compound in question selects one or more of each isoform to inhibit.

PDE1 = conditions: reported in Hatzelmann et al. 2001; read-out: IC50 for roflumilast activity on PDE1; cited from earlier work

Cc1[nH]c(=O)c(C#N)cc1-c1ccncc1 [milrinone]
APD90 ([1]; atrial cells, 10 μM, before drug 153.9±12.1 msec, P<0.05, n=4): 135.5 ± 12.3 ms | effect on APD90 ([2]; ventricular cells, 10 μM, after treatment with either rolipram or MS23): markedly shortened | APD90 ([2]; ventricular cells, 10 μM, before drug 287.9±10.3 msec, P<0.05, n=4): 327.8 ± 17.4 ms

NC[C@H](O)c1ccc(O)c(O)c1 [Norepinephrine]
effect on tension of high K+ contracted porcine kidney main artery [3]: contracted

CCCN(CC)C(C)C(=O)Nc1[nH]c(CCSC)c(C)c1C(N)=O (stereo not shown) [MS23]
onset of therapeutic effect (response occurs) ([4]; after intraperitoneal administration): < 3 min | onset of therapeutic effect (response occurs) ([4]; after oral gavage): ≤ 30 min | solubility in physiological saline (solubility): soluble | Left Ventricular End Diastolic Pressure ([5]; Bolus 1 mg/kg·bw): 9.0 | Blood Pressure Min ([5]; Bolus 1 mg/kg·bw): 39.8 | Blood Pressure Mean ([5]; Bolus 1 mg/kg·bw): 58.4 | Left Ventricular Systolic Pressure ([5]; Bolus 1 mg/kg·bw): 71.8 | Blood Pressure Max ([5]; Bolus 1 mg/kg·bw): 90.5 mmHg | Heart Rate ([5]; Bolus 1 mg/kg·bw): 118.2 | Left Ventricular End Diastolic Pressure ([5]; Bolus 2 mg/kg·bw): 9.2 | Blood Pressure Min ([5]; Bolus 2 mg/kg·bw): 33.7 | Blood Pressure Mean ([5]; Bolus 2 mg/kg·bw): 48.0 | Left Ventricular Systolic Pressure ([5]; Bolus 2 mg/kg·bw): 63.1 | Blood Pressure Max ([5]; Bolus 2 mg/kg·bw): 76.8 mmHg | Heart Rate ([5]; Bolus 2 mg/kg·bw): 109.7 | reduction in blood pressure ([5]; intravenous bolus 0.25 mg/kg.bw): 4 mmHg | effect on APD ([1]; atrial cells, 30 μM): no effect | prolongation of atrial APD ([1]; from 1 to 100 μM): did not prolong | prolongation of ventricular APD ([2]; from 1 to 100 μM): did not prolong | APD90 (action potential duration at 90% of repolarization) ([2]; ventricular cells, 30 μM, before drug 304.9±24.0 msec, P<0.05, n=8): 254.9 ± 28.4 ms | Mean Blood Pressure ([6]; oral gavage 26 mg/kg·bw): 156 mm Hg | Heart Rate ([6]; oral gavage 26 mg/kg·bw): 384 beat/min | Mean Blood Pressure ([6]; oral gavage 80 mg/kg·bw): 126 mm Hg | Heart Rate ([6]; oral gavage 80 mg/kg·bw): 300 beat/min

COc1ccc(C2CNC(=O)C2)cc1OC1CCCC1 (stereo not shown) [rolipram, reference compound]
effect on action potential phases ([1]; atrial cells, 30 μM): small delay of phase 1 and plateau phase, but acceleration of phase 3 repolarization | APD90 ([2]; ventricular cells, 30 μM, before drug 318.3±8.9 msec, P<0.05, n=3): 274.6 ± 9.8 ms

O=C(Nc1c(Cl)cncc1Cl)c1ccc(OC(F)F)c(OCC2CC2)c1 [roflumilast]
pIC50 (PDE-4): 9.10 | selectivity for PDE-4 as compared with PDE5 (PDE5 IC50/PDE-4 IC50) (PDE5): at least 10,000 | pIC50 (PDE1): < 5.00

CCN(CC)CC(=O)Nc1c(C)cccc1C [Lidocaine]
effect on tension of high K+ contracted porcine kidney main artery [3]: did not relax
